Legend:
[1] = tested on: influenza virus (Strain A/Singapore); assay: Anti-HA antibody titration by inhibition of influenza virus-induced haemagglutination after subcutaneous immunization; type: in vivo, Balb/c mice; settings: 5 μg of HA, in comparison with mice which received the vaccine without adjuvant (Group A)
Description: 5 groups of 4 Balb/c mice are immunized by 3 subcutaneous injections performed on D0, D21 and D36 with the following vaccine compositions:
Group A: 0.3 ml of diluted strain A/Singapore monovalent influenza vaccine containing 5 μg of HA in 0.3 ml of PBS,
Group B: 0.3 ml of vaccine composition obtained according to Example 2,
Group C: 0.3 ml of vaccine composition obtained according to Example 3,
Group D: 0.3 ml of vaccine composition obtained according to Example 6,
Group E: 0.3 ml of vaccine composition obtained according to Example 7.
In order to perform the assays for neutralizing antibodies, the sera of mice are sampled on D21, D36 and […], and the titration of anti-HA antibodies is performed by means of the technique of inhibition of influenza virus-induced haemagglutination.
The titres of neutralizing antibodies in the mouse sera are presented in the form of log2 of the highest dilution inducing haemagglutination inhibition.

[2] = tested on: trivalent influenza vaccine comprising strain A/Texas, strain B/Panama and strain A/Beijing; assay: Tests with a trivalent influenza vaccine; type: in vivo
[3] = tested on: strain A/Singapore monovalent influenza vaccine; assay: Immune response (HAI) as a function of the dose of DC chol; type: in vivo, female Balb/c mice; settings: DC chol/DOPC liposomes, injected D0 and D28, sera D42
[4] = tested on: strain A/Singapore monovalent influenza vaccine; assay: Induction of antibody isotypes IgG1 and IgG2 (ELISA) in adult mice; type: in vivo, 8- to 10-week-old female BALB/c adult mice; settings: 400 μg of DC chol with DOPC
[5] = tested on: strain A/Singapore monovalent influenza vaccine; assay: Induction of antibody isotypes (ELISA) in elderly mice; type: in vivo, 20 to 22-month-old mice; settings: primary and secondary response
Description: The same experiment is carried out exactly as in Example 12 but, in this instance, the mice tested are 20 to 22-month-old mice which are more difficult to stimulate.

[6] = tested on: strain A/Singapore monovalent influenza vaccine; assay: Immunization by combined subcutaneous and intranasal administration; type: in vivo, BALB/c mice
Description: Two groups of 4 BALB/c mice are immunized twice with an interval of 4 weeks with, on each occasion, the following vaccine compositions:
Group 3 (G3):—a vaccine composition of 300 μl injected subcutaneously comprising 4 μg of HA (in the form of strain A/Singapore monovalent influenza vaccine) combined with […] of DC chol (in the form of DC chol/DOPC liposomes), and
a vaccine composition of 50 μl administered intranasally comprising 0.25 μg of HA (in the form of strain A/Singapore monovalent influenza vaccine) combined with 6 μg of DC chol (in the form of DC chol/DOPC liposomes),
Group 4 (G4):—a vaccine composition of 300 μl injected subcutaneously comprising 4 μg of HA combined with 200 μg of DC chol, and
a vaccine composition of 50 μl administered intranasally comprising 0.25 μg of HA combined with 200 μg of DC chol.
The sera of the immunized mice are sampled 3 weeks after the booster administration and, for each mouse, the level of neutralizing antibodies is assayed by the HAI haemagglutination inhibition technique.

Compound: CC(C)CCC[C@@H](C)[C@H]1CC[C@H]2[C@@H]3CC=C4C[C@@H](OC(=O)NCCN(C)C)CC[C@]4(C)[C@H]3CC[C@]12C [DC chol, 3β-[N-(N′,N′-dimethylaminoethane)-carbamoyl]cholesterol]
- level of anti-HA antibodies (HAI) [1]: markedly higher
- adjuvant power with trivalent influenza vaccine [2]: adjuvant power
- dose of DC chol at which the maximum benefit of the adjuvant effect is obtained (HAI titre) [3]: above 100 μg of DC chol/dose
- IgG2a produced (ELISA) [4]: large increase
- adjuvant effect on IgG1 and IgG2 produced (ELISA) ([4]; primary and secondary response, in comparison to aluminium hydroxide): adjuvant effect
- adjuvant effect on IgG1 and IgG2 produced (ELISA), in particular IgG2a [5]: adjuvant effect
- number of cells secreting IgG and IgA in the lungs (ELISPOT): dose effect ([6]; 6 versus 200 μg of DC chol): identical dose effect
- ratio of specific IgG (or IgA) to total IgG (or IgA) in nasopharyngeal lavage fluids: dose effect ([6]; 6 versus 200 μg of DC chol): identical dose effect
- serum IgG measured by ELISA: dose effect ([6]; 6 versus 200 μg of DC chol): identical dose effect
- level of neutralizing antibodies (HAI): effect of the dose of DC chol ([6]; dose of DC chol from 6 to 200 μg, mixed subcutaneous and intranasal): enables the immune response to be increased
- level of neutralizing antibodies (HAI): adjuvant effect ([6]; mixed subcutaneous and intranasal administration): adjuvant effect

Source: patent publication US6780421B1, “Adjuvant for a vaccine composition” (priority 1997, dated 2004)
